The structures appear in SMILES notation.

This test deals with neutrophil elastase (Homo sapiens (Human), UniProt P08246). The experiment in a line: Human Neutrophil Elastase Assay. The note with it: substrate MeOSuc-Ala-Ala-Pro-Val-AMC. It is filed as biochemical. The method, then: Human Neutrophil Elastase Assay
Sequence of neutrophil elastase (P08246 30-247): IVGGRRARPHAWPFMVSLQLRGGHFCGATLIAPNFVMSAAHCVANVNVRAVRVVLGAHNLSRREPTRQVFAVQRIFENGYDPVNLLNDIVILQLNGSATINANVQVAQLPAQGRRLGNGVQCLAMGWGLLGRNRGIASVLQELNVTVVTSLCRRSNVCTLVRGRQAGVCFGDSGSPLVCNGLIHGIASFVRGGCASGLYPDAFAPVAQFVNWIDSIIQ
All other materials were of the highest grade commercially available.
The following buffers were used: Compound buffer: 100 mM Tris, 500 mM NaCl, adjusted to pH 7.5; Assay buffer: 100 mM Tris, 500 mM NaCl, adjusted to pH 7.5, containing 0.01% BSA.
Assay conditions: Test compounds were prediluted in DMSO and subsequently in compound buffer (5% DMSO final). […] After inactivation of the enzyme, fluorescence intensities were measured at 380 nm excitation and 460 nm emission wavelengths.
Each plate contains wells with a high value control (DMSO+enzyme+substrate) and wells with a low value control (DMSO+inactivated enzyme+substrate). IC50 values were estimated using a sigmoidal concentration response curve with variable slope. Means of low values were taken as 0%, means of high values as 100%.
In the case of `CCOC(=O)C1=C(C)N(c2cccc(C(F)(F)F)c2)C(=O)N(C)C1c1ccc(C#N)cc1C(=O)N1CC(O)C1` (stereo not shown) [Example 3.13], the IC50 (commonly the concentration that gives 50% inhibition) was below 1 nM.

Regarding `CCOC(=O)C1=C(C)N(c2cccc(C(F)(F)F)c2)C(=O)N(C)C1c1ccc(C#N)cc1C(=O)NC1COC1` (stereo not shown) [Example 3.14], the IC50 is below 1 nM.

As for `CCOC(=O)C1=C(C)N(c2cccc(C(F)(F)F)c2)C(=O)N(C)C1c1ccc(C#N)cc1C(=O)NCC(F)F` (stereo not shown) [Example 3.18], the IC50 was below 1 nM.

In turn, `CCOC(=O)C1=C(C)N(c2cccc(C(F)(F)F)c2)C(=O)N(C)C1c1ccc(C#N)cc1C(=O)NC12CCC1C2` (stereo not shown) [Example 3.19] had an IC50 below 1 nM.

The compound `CCOC(=O)C1=C(C)N(c2cccc(C(F)(F)F)c2)C(=O)N(C)C1c1ccc(C#N)cc1C(=O)NC1CCOC1` (stereo not shown) [Example 3.21] came in with an IC50 of 1.4 nM.

With `CCOC(=O)C1=C(C)N(c2cccc(C(F)(F)F)c2)C(=O)N(C)C1c1ccc(C#N)cc1C(=O)N1CCOCC1` (stereo not shown) [Example 3.22], inhibition was half-maximal at 2 nM (IC50).

Compound `CCOC(=O)C1=C(C)N(c2cccc(C(F)(F)F)c2)C(=O)N(C)C1c1ccc(C#N)cc1C(=O)NCC(C)(C)O` (stereo not shown) [Example 3.23] yielded an IC50 of 1.3 nM.

In the case of `CCOC(=O)C1=C(C)N(c2cccc(C(F)(F)F)c2)C(=O)N(C)C1c1ccc(C#N)cc1C(=O)N(C)CCOC` (stereo not shown) [Example 3.24], the IC50 was determined as 1 nM.

With `CCOC(=O)C1=C(C)N(c2cccc(C(F)(F)F)c2)C(=O)N(C)C1c1ccc(C#N)cc1C(=O)NCCCOC` (stereo not shown) [Example 3.25], half-maximal inhibition (IC50) required 1.2 nM.

`CCOC(=O)C1=C(C)N(c2cccc(C(F)(F)F)c2)C(=O)N(C)C1c1ccc(C#N)cc1C(=O)NCC(F)(F)F` (stereo not shown) [Example 3.26] came in with an IC50 of 1.6 nM.

On to `CCOC(=O)C1=C(C)N(c2cccc(C(F)(F)F)c2)C(=O)N(C)C1c1ccc(C#N)cc1C(=O)N1CCC(O)CC1` (stereo not shown) [Example 3.27], for which the 50% inhibitory concentration (IC50) turned out to be 2.2 nM.

`CCOC(=O)C1=C(C)N(c2cccc(C(F)(F)F)c2)C(=O)N(C)C1c1ccc(C#N)cc1C(=O)NC1CCC(O)C1` (stereo not shown) [Example 3.28] displayed an IC50 of 1.3 nM.

`CCOC(=O)C1=C(C)N(c2cccc(C(F)(F)F)c2)C(=O)N(C)C1c1ccc(C#N)cc1C(=O)NC1CCOCC1` (stereo not shown) [Example 3.29]: the midpoint of inhibition, the IC50, lay at 1.4 nM.

In turn, `CCOC(=O)C1=C(C)N(c2cccc(C(F)(F)F)c2)C(=O)N(C)C1c1ccc(C#N)cc1C(=O)N(C)CCCOC` (stereo not shown) [Example 3.30] registered an IC50 of 1.1 nM.

For `CCOC(=O)C1=C(C)N(c2cccc(C(F)(F)F)c2)C(=O)N(C)C1c1ccc(C#N)cc1C(=O)NC1CCN(C)CC1` (stereo not shown) [Example 3.31], it took 1 nM to reach half-maximal inhibition (IC50).

On to `CCOC(=O)C1=C(C)N(c2cccc(C(F)(F)F)c2)C(=O)N(C)C1c1ccc(C#N)cc1C(=O)NCCS(C)(=O)=O` (stereo not shown) [Example 3.32], for which 1.1 nM corresponded to half-maximal inhibition (IC50).

`CCOC(=O)C1=C(C)N(c2cccc(C(F)(F)F)c2)C(=O)N(C)C1c1ccc(C#N)cc1C(=O)N(C)Cc1cnn(C)c1` (stereo not shown) [Example 3.33] yielded an IC50 below 1 nM.

As to `CCOC(=O)C1=C(C)N(c2cccc(C(F)(F)F)c2)C(=O)N(C)C1c1ccc(C#N)cc1C(=O)NC1CCS(=O)(=O)C1` (stereo not shown) [Example 3.34], the IC50 is 1 nM.

In the case of `CCOC(=O)C1=C(C)N(c2cccc(C(F)(F)F)c2)C(=O)N(C)C1c1ccc(C#N)cc1C(=O)NCCN(C)C` (stereo not shown) [Example 3.35], the IC50 is below 1 nM.

For `CCOC(=O)C1=C(C)N(c2cccc(C(F)(F)F)c2)C(=O)N(C)C1c1ccc(C#N)cc1C(=O)N(C)CCN(C)C` (stereo not shown) [Example 3.36], the IC50 was below 1 nM.

The compound `CCOC(=O)C1=C(C)N(c2cccc(C(F)(F)F)c2)C(=O)N(C)C1c1ccc(C#N)cc1C(=O)N1CC[C@@H](N(C)C)C1` (stereo partly shown) [Example 3.37] gave an IC50 of 2.8 nM.

Take `CCOC(=O)C1=C(C)N(c2cccc(C(F)(F)F)c2)C(=O)N(C)C1c1ccc(C#N)cc1C(=O)N1CC[C@H](N(C)C)C1` (stereo partly shown) [Example 3.38]: the half-inhibitory concentration (IC50) came out at 1 nM.

For the compound `CCOC(=O)C1=C(C)N(c2cccc(C(F)(F)F)c2)C(=O)N(C)C1c1ccc(C#N)cc1C(=O)N1CCn2cnnc2C1` (stereo not shown) [Example 3.41], the IC50 was below 1 nM.

Consider `CCOC(=O)C1=C(C)N(c2cccc(C(F)(F)F)c2)C(=O)N(C)C1c1ccc(C#N)cc1C(=O)N1CCN(C2CC2)CC1` (stereo not shown) [Example 3.42], for which the IC50 was determined as 2.9 nM.

Consider `CCOC(=O)C1=C(C)N(c2cccc(C(F)(F)F)c2)C(=O)N(C)C1c1ccc(C#N)cc1C(=O)N1CCN2CCCC2C1` (stereo not shown) [Example 3.43], for which the IC50 was 2.8 nM.

As to `CCOC(=O)C1=C(C)N(c2cccc(C(F)(F)F)c2)C(=O)N(C)C1c1ccc(C#N)cc1C(=O)NC1CCN(C(C)C)C1` (stereo not shown) [Example 3.44], the midpoint of inhibition, the IC50, lay at 1.1 nM.

For `CCOC(=O)C1=C(C)N(c2cccc(C(F)(F)F)c2)C(=O)N(C)C1c1ccc(C#N)cc1C(=O)N1CCN(C(C)C)CC1` (stereo not shown) [Example 3.45], half-maximal inhibition (IC50) required 1.8 nM.

Take `CCOC(=O)C1=C(C)N(c2cccc(C(F)(F)F)c2)C(=O)N(C)C1c1ccc(C#N)cc1C(=O)N1CCN2CCOCC2C1` (stereo not shown) [Example 3.46]: the midpoint of inhibition, the IC50, lay at 3.8 nM.

Take `CCOC(=O)C1=C(C)N(c2cccc(C(F)(F)F)c2)C(=O)N(C)C1c1ccc(C#N)cc1C(=O)N1CCNCC1` (stereo not shown) [Example 4, 4-[4-Cyano-2-(piperazine-1-carbonyl)-phenyl]-3,6-dimethyl-2-oxo-1-(3-trifluoromethyl-phenyl)-1,2,3,4-tetrahydro-pyrimidine-5-carboxylic acid ethyl ester]: the IC50 was 1.4 nM.

In turn, `CCOC(=O)C1=C(C)N(c2cccc(C(F)(F)F)c2)C(=O)N(C)C1c1ccc(C#N)cc1C(=O)N1C[C@H]2C[C@@H]1CN2` (stereo partly shown) [Example 4.1] registered an IC50 of 2.4 nM.

Consider `CCOC(=O)C1=C(C)N(c2cccc(C(F)(F)F)c2)C(=O)N(C)C1c1ccc(C#N)cc1C(=O)NC1CCNCC1` (stereo not shown) [Example 4.2], for which it took 1.7 nM to reach half-maximal inhibition (IC50).

Take `CCOC(=O)C1=C(C)N(c2cccc(C(F)(F)F)c2)C(=O)N(C)C1c1ccc(C#N)cc1C(=O)N1CCC(N)CC1` (stereo not shown) [Example 4.3]: the IC50 was 4.8 nM.

On to `CCOC(=O)C1=C(C)N(c2cccc(C(F)(F)F)c2)C(=O)N(C)C1c1ccc(C#N)cc1C(=O)N1CC2COCC(C1)N2` (stereo not shown) [Example 4.4], for which half-maximal inhibition (IC50) required 11.4 nM.

On to `CCOC(=O)C1=C(C)N(c2cccc(C(F)(F)F)c2)C(=O)N(C)C1c1ccc(C#N)cc1C(=O)NCCN` (stereo not shown) [Example 4.5], for which the IC50 was below 1 nM.

Compound `CCOC(=O)C1=C(C)N(c2cccc(C(F)(F)F)c2)C(=O)N(C)C1c1ccc(C#N)cc1C(=O)N[C@H]1C[C@H]1N` (stereo partly shown) [Example 4.6] registered an IC50 below 1 nM.

As for `CCOC(=O)C1=C(C)N(c2cccc(C(F)(F)F)c2)C(=O)N(C)C1c1ccc(C#N)cc1C(=O)N[C@@H]1C[C@H]1N` (stereo partly shown) [Example 4.7], the IC50 was below 1 nM.

`CCOC(=O)C1=C(C)N(c2cccc(C(F)(F)F)c2)C(=O)N(C)C1c1ccc(C#N)cc1C(=O)N(C)CCN` (stereo not shown) [Example 4.8]: the IC50 was below 1 nM.

In turn, `CCOC(=O)C1=C(C)N(c2cccc(C(F)(F)F)c2)C(=O)N(C)C1c1ccc(C#N)cc1C(=O)NCCNC` (stereo not shown) [Example 4.9] returned an IC50 below 1 nM.

As for `CCOC(=O)C1=C(C)N(c2cccc(C(F)(F)F)c2)C(=O)N(C)C1c1ccc(C#N)cc1C(=O)N[C@H]1CCNC1` (stereo partly shown) [Example 4.10], the IC50 worked out at 1.2 nM.

In turn, `CCOC(=O)C1=C(C)N(c2cccc(C(F)(F)F)c2)C(=O)N(C)C1c1ccc(C#N)cc1C(=O)N[C@@H]1CCNC1` (stereo partly shown) [Example 4.11] displayed an IC50 of 1.1 nM.

`CCOC(=O)C1=C(C)N(c2cccc(C(F)(F)F)c2)C(=O)N(C)C1c1ccc(C#N)cc1C(=O)N1CC[C@@H](N)C1` (stereo partly shown) [Example 4.12] had an IC50 below 1 nM.

In turn, `CCOC(=O)C1=C(C)N(c2cccc(C(F)(F)F)c2)C(=O)N(C)C1c1ccc(C#N)cc1C(=O)N1CC[C@H](N)C1` (stereo partly shown) [Example 4.13] gave an IC50 below 1 nM.

Compound `CCOC(=O)C1=C(C)N(c2cccc(C(F)(F)F)c2)C(=O)N(C)C1c1ccc(C#N)cc1C(=O)N1CC[C@H](NC)C1` (stereo partly shown) [Example 4.16] returned an IC50 below 1 nM.

With `CCOC(=O)C1=C(C)N(c2cccc(C(F)(F)F)c2)C(=O)N(C)C1c1ccc(C#N)cc1C(=O)N1CCNC(C)C1` (stereo not shown) [Example 4.17], the IC50 came to 2 nM.

`CCOC(=O)C1=C(C)N(c2cccc(C(F)(F)F)c2)C(=O)N(C)C1c1ccc(C#N)cc1C(=O)NC1CCN(C)C1` (stereo not shown) [Example 4.18] displayed an IC50 of 1.3 nM.

`CC(=O)C1=C(C)N(c2cccc(C(F)(F)F)c2)C(=O)N(C)C1c1ccc(C#N)cc1-c1ccoc1` (stereo not shown) [Example 5, 4-[5-Acetyl-3,6-dimethyl-2-oxo-1-(3-trifluoromethyl-phenyl)-1,2,3,4-tetrahydro-pyrimidin-4-yl]-3-furan-3-yl-benzonitrile] had an IC50 of 2.6 nM.

Take `CC(=O)C1=C(C)N(c2cccc(C(F)(F)F)c2)C(=O)N(C)C1c1ccc(C#N)cc1-c1ccco1` (stereo not shown) [Example 5.1]: half-maximal inhibition (IC50) required 1.9 nM.

Take `CC(=O)C1=C(C)N(c2cccc(C(F)(F)F)c2)C(=O)N(C)C1c1ccc(C#N)cc1-c1ccn(C)n1` (stereo not shown) [Example 5.2]: it took 1.4 nM to reach half-maximal inhibition (IC50).

As to `CC(=O)C1=C(C)N(c2cccc(C(F)(F)F)c2)C(=O)N(C)C1c1ccc(C#N)cc1-c1cnn(C)c1` (stereo not shown) [Example 5.3], inhibition was half-maximal at 1.1 nM (IC50).

On to `CC(=O)C1=C(C)N(c2cccc(C(F)(F)F)c2)C(=O)N(C)C1c1ccc(C#N)cc1-c1ccn(C)c(=O)c1` (stereo not shown) [Example 5.4], for which the IC50 was below 1 nM.

The compound `CC(=O)C1=C(C)N(c2cccc(C(F)(F)F)c2)C(=O)N(C)C1c1ccc(C#N)cc1C1=CN(C(=O)OC(C)(C)C)CC1` (stereo not shown) [Example 5.5] returned an IC50 of 5.3 nM.

In turn, `CC(=O)C1=C(C)N(c2cccc(C(F)(F)F)c2)C(=O)N(C)C1c1ccc(C#N)cc1C1=CCN(C(=O)OC(C)(C)C)CC1` (stereo not shown) [Example 5.6, 4-{2-[5-Acetyl-3,6-dimethyl-2-oxo-1-(3-trifluoromethyl-phenyl)-1,2,3,4-tetrahydro-pyrimidin-4-yl]-5-cyano-phenyl}-3,6-dihydro-2H-pyridine-1-carboxylic acid tert-butyl ester] returned an IC50 of 4.8 nM.
